In PMC6001238, “Iterative Chemical Engineering of Vancomycin Leads to Novel Vancomycin Analogs With a High in Vitro Therapeutic Index” (Frontiers in Microbiology, 2018):
Values after ≈ are worked out from the molar mass of the structure shown.

Key:
E. faecalis VSE 1 = assay: MIC, broth microdilution, vancomycin-sensitive E. faecalis (VSE 1); assay type: cell-based, Enterococcus faecalis; settings: for MIC: Enterococcus faecalis VSE 1 (vancomycin-sensitive), read-out: MIC; for MIC-fold improvement vs. vancomycin: VSE 1, ratio of MIC of vancomycin and MIC of analogue
Method in brief: (§1)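 CLSI broth microdilution; water and uninoculated-broth controls; one arm supplemented with vancomycin, final 10 μM, given with analogue or control antibiotic.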

E. faecalis VRE 6 = assay: MIC, broth microdilution, vancomycin-resistant E. faecalis VRE 6 (VanA); assay type: cell-based, Enterococcus faecalis; settings: for MIC: Enterococcus faecalis VRE 6 (vancomycin-resistant), read-out: MIC; for MIC-fold improvement vs. vancomycin: VRE 6, ratio of MIC of vancomycin and MIC of analogue
Method in brief: as §1

E. faecalis VRE 53 = assay: MIC, broth microdilution, vancomycin-resistant E. faecalis VRE 53 (VanA); assay type: cell-based, Enterococcus faecalis; settings: for MIC: Enterococcus faecalis VRE 53 (vancomycin-resistant), read-out: MIC; for MIC-fold improvement vs. vancomycin: VRE 53, ratio of MIC of vancomycin and MIC of analogue
Method in brief: as §1

E. faecalis VRE 29 = assay: MIC, broth microdilution, vancomycin-resistant E. faecalis VRE 29 (VanA); assay type: cell-based, Enterococcus faecalis; settings: for MIC: Enterococcus faecalis VRE 29 (vancomycin-resistant), read-out: MIC; for MIC-fold improvement vs. vancomycin: VRE 29, ratio of MIC of vancomycin and MIC of analogue
Method in brief: as §1

E. faecalis VRE 37 = assay: MIC, broth microdilution, vancomycin-resistant E. faecalis VRE 37 (VanA); assay type: cell-based, Enterococcus faecalis; settings: for MIC: Enterococcus faecalis VRE 37 (vancomycin-resistant), read-out: MIC; for MIC-fold improvement vs. vancomycin: VRE 37, ratio of MIC of vancomycin and MIC of analogue
Method in brief: as §1

[1] = test system: Murine leukemia (L1210) cells; assay: Cytostatic activity, L1210 cell proliferation; assay type: cell-based; settings: mean ± SD of three experiments; highest concentration tested 250 µM; 2 days; read-out: Toxicity (IC50) L1210
Method in brief: (§2)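 Test compounds, serially diluted, received an equal volume of cell suspension at 300,000–500,000 cells/mL. After 37°C incubation (2 days for L1210, 3 for CEM, 4 for HeLa), cells were enumerated by Coulter counting and 50%-inhibitory concentrations calculated per cell type.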

[2] = test system: human T-lymphocyte (CEM) cells; assay: Cytostatic activity, CEM cell proliferation; assay type: cell-based; settings: mean ± SD of three experiments; highest concentration tested 250 µM; 3 days; read-out: Toxicity (IC50) CEM
Method in brief: as §2

[3] = test system: human cervix carcinoma (HeLa) cells; assay: Cytostatic activity, HeLa cell proliferation; assay type: cell-based; settings: mean ± SD of three experiments; highest concentration tested 250 µM; 4 days; read-out: Toxicity (IC50) HeLa
Method in brief: as §2

[4] = test system: L1210, CEM and HeLa cell lines; assay: Cytostatic activity, average or summary over L1210, CEM and HeLa; assay type: cell-based; settings: average of L1210, CEM and HeLa; read-out: Toxicity (IC50) Average
Method in brief: as §2

[5] = test system: S. aureus VSSA (ATCC 6538); assay: MIC, broth microdilution, vancomycin-sensitive S. aureus (VSSA/MSSA, ATCC 6538); assay type: cell-based, Staphylococcus aureus; settings: for MIC: Staphylococcus aureus VSSA, read-out: MIC; for MIC-fold improvement vs. vancomycin: VSSA, ratio of MIC of vancomycin and MIC of analogue
Method in brief: as §1

S. aureus VISA/HIP5827 = assay: MIC, broth microdilution, vancomycin-intermediate S. aureus VISA HIP5827; assay type: cell-based, Staphylococcus aureus; settings: for MIC: Staphylococcus aureus VISA/HIP5827, read-out: MIC; for MIC-fold improvement vs. vancomycin: VISA/HIP5827, ratio of MIC of vancomycin and MIC of analogue
Method in brief: as §1

S. aureus VRSA = assay: MIC, broth microdilution, vancomycin-resistant S. aureus (VRSA); assay type: cell-based, Staphylococcus aureus; settings: for MIC: Staphylococcus aureus VRSA, read-out: MIC; for MIC-fold improvement vs. vancomycin: VRSA, ratio of MIC of vancomycin and MIC of analogue
Method in brief: as §1

MRSA KS2 = assay: MIC, broth microdilution, MRSA KS2; assay type: cell-based, Staphylococcus aureus; settings: for MIC-fold improvement vs. vancomycin: MRSA KS2, ratio of MIC of vancomycin and MIC of analogue; for MIC: Staphylococcus aureus MRSA KS2, read-out: MIC
Method in brief: as §1

MRSA KS6 = assay: MIC, broth microdilution, MRSA KS6; assay type: cell-based, Staphylococcus aureus; settings: for MIC-fold improvement vs. vancomycin: MRSA KS6, ratio of MIC of vancomycin and MIC of analogue; for MIC: Staphylococcus aureus MRSA KS6, read-out: MIC
Method in brief: as §1

MRSA KS89 = assay: MIC, broth microdilution, MRSA KS89; assay type: cell-based, Staphylococcus aureus; settings: for MIC-fold improvement vs. vancomycin: MRSA KS8, ratio of MIC of vancomycin and MIC of analogue; for MIC: Staphylococcus aureus MRSA KS8, read-out: MIC
Method in brief: as §1

MRSA KS1 = assay: MIC, broth microdilution, MRSA KS1; assay type: cell-based, Staphylococcus aureus; settings: for MIC-fold improvement vs. vancomycin: MRSA KS1, ratio of MIC of vancomycin and MIC of analogue; for MIC: Staphylococcus aureus MRSA KS1, read-out: MIC
Method in brief: as §1

MIC (E. faecalis VSE 1) | MIC-fold improvement vs. vancomycin (E. faecalis VSE 1) | MIC (E. faecalis VRE 6) | MIC-fold improvement vs. vancomycin (E. faecalis VRE 6) | MIC (E. faecalis VRE 53) | MIC-fold improvement vs. vancomycin (E. faecalis VRE 53) | MIC (E. faecalis VRE 29) | MIC-fold improvement vs. vancomycin (E. faecalis VRE 29) | MIC (E. faecalis VRE 37) | MIC [5] | MIC-fold improvement vs. vancomycin [5] | MIC (S. aureus VISA/HIP5827) | MIC-fold improvement vs. vancomycin (S. aureus VISA/HIP5827) | MIC (S. aureus VRSA) | MIC-fold improvement vs. vancomycin (S. aureus VRSA) | MIC-fold improvement vs. vancomycin (MRSA KS2) | SMILES | IC50 [1] | IC50 [2] | IC50 [3] | IC50 [4] | also measured
≤0.05 µM | ≥32 | 3.13 µM (≈ 5.27 µg/mL) | 64 | 12.5 µM (≈ 21 µg/mL) | 32 | 6.25 µM (≈ 10.5 µg/mL) | 64 | 6.25 µM (≈ 10.5 µg/mL) | 0.10 µM (≈ 0.168 µg/mL) | 8 | 0.78 µM (≈ 1.31 µg/mL) | 8 | 0.78 µM (≈ 1.31 µg/mL) | 128 | 8 | CNC(CC(C)C)C(=O)NC1C(=O)NC(CC(N)=O)C(=O)NC2C(=O)NC3C(=O)NC(C(=O)NC(C(=O)NCC(=O)Nc4ccc5c(c4)C(=O)c4ccccc4-5)c4cc(O)cc(O)c4-c4cc3ccc4O)C(O)c3ccc(c(Cl)c3)Oc3cc2cc(c3OC2OC(CO)C(O)C(O)C2OC2CC(C)(N)C(O)C(C)O2)Oc2ccc(cc2Cl)C1O (centres unmarked) [Vanc-89] | 71 ± 56 µM | 38 ± 10 µM | 154 ± 30 µM | 88 µM | MIC-fold improvement vs. vancomycin (E. faecalis VRE 37): 64; MIC (MRSA KS2): 0.10 µM (≈ 0.168 µg/mL); MIC-fold improvement vs. vancomycin (MRSA KS6): 4; MIC (MRSA KS6): 0.20 µM (≈ 0.337 µg/mL); MIC-fold improvement vs. vancomycin (MRSA KS89): 4; MIC (MRSA KS89): 0.20 µM (≈ 0.337 µg/mL); MIC-fold improvement vs. vancomycin (MRSA KS1): 8; MIC (MRSA KS1): 0.10 µM (≈ 0.168 µg/mL)
0.78 µM (≈ 1.28 µg/mL) | 2 | 6.25 µM (≈ 10.3 µg/mL) | 32 | 25 µM (≈ 41 µg/mL) | 16 | 25 µM (≈ 41 µg/mL) | 16 | 50 µM (≈ 82.1 µg/mL) | 0.78 µM (≈ 1.28 µg/mL) | 1 | 0.78 µM (≈ 1.28 µg/mL) | 8 | 12.5 µM (≈ 20.5 µg/mL) | 8 | 2 | CN[C@H](CC(C)C)C(=O)N[C@H]1C(=O)N[C@@H](CC(N)=O)C(=O)N[C@H]2C(=O)N[C@H]3C(=O)N[C@H](C(=O)N[C@H](C(=O)NCC(=O)Nc4cc(OC)cc(OC)c4)c4cc(O)cc(O)c4-c4cc3ccc4O)[C@H](O)c3ccc(c(Cl)c3)Oc3cc2cc(c3O[C@@H]2O[C@H](CO)[C@@H](O)[C@H](O)[C@H]2O[C@H]2C[C@](C)(N)[C@H](O)[C@H](C)O2)Oc2ccc(cc2Cl)[C@H]1O [Vanc-17] | > 250 µM | > 250 µM | 119 ± 48 µM | 206 µM | MIC-fold improvement vs. vancomycin (E. faecalis VRE 37): 8; MIC (MRSA KS2): 0.39 µM (≈ 0.64 µg/mL); MIC-fold improvement vs. vancomycin (MRSA KS6): 1; MIC (MRSA KS6): 0.78 µM (≈ 1.28 µg/mL); MIC-fold improvement vs. vancomycin (MRSA KS89): 1; MIC (MRSA KS89): 0.78 µM (≈ 1.28 µg/mL); MIC-fold improvement vs. vancomycin (MRSA KS1): 1; MIC (MRSA KS1): 0.78 µM (≈ 1.28 µg/mL)
0.78 µM (≈ 1.3 µg/mL) | 2 | 12.5 µM (≈ 20.8 µg/mL) | 16 | 12.5 µM (≈ 20.8 µg/mL) | 32 | 25 µM (≈ 41.7 µg/mL) | 16 | 25 µM (≈ 41.7 µg/mL) | 1.56 µM (≈ 2.6 µg/mL) | 0.5 | 1.56 µM (≈ 2.6 µg/mL) | 4 | 25 µM (≈ 41.7 µg/mL) | 4 | 1 | CN[C@H](CC(C)C)C(=O)N[C@H]1C(=O)N[C@@H](CC(N)=O)C(=O)N[C@H]2C(=O)N[C@H]3C(=O)N[C@H](C(=O)N[C@H](C(=O)NCC(=O)Nc4ccc(N5CCOCC5)cc4)c4cc(O)cc(O)c4-c4cc3ccc4O)[C@H](O)c3ccc(c(Cl)c3)Oc3cc2cc(c3O[C@@H]2O[C@H](CO)[C@@H](O)[C@H](O)[C@H]2O[C@H]2C[C@](C)(N)[C@H](O)[C@H](C)O2)Oc2ccc(cc2Cl)[C@H]1O [Vanc-8] | > 250 µM | ≥ 250 µM | 107 ± 25 µM | 202 µM | MIC (MRSA KS2): 0.78 µM (≈ 1.3 µg/mL); MIC-fold improvement vs. vancomycin (MRSA KS6): 0.5; MIC (MRSA KS6): 1.56 µM (≈ 2.6 µg/mL); MIC-fold improvement vs. vancomycin (MRSA KS89): 1; MIC (MRSA KS89): 0.78 µM (≈ 1.3 µg/mL); MIC-fold improvement vs. vancomycin (MRSA KS1): 1; MIC (MRSA KS1): 0.78 µM (≈ 1.3 µg/mL)
